Activity calls are given as the source filed them. The rule behind the calls is not given here.
test: modulators of 2-deoxyglucose-induced H9c2 death, dose response, myocardial damage modulator project, cell-based, ATPlite luminescence, rat, set 2 (AID 602210); conditions: H9c2 rat cardiomyoblasts, 2-deoxyglucose-induced death, 2 h

Q: For `CCOC(=O)N1CCN(C(=O)CSc2nc3c(cnn3-c3ccc(C)cc3)c(=O)[nH]2)CC1`, which IC50 is on record?
A: > 79 µM (inactive)

Q: Which IC50 does the source give for `COc1cc(-c2cc(NC(C)=O)c3ncc(-c4ccc(F)cc4)n3c2)cc(OC)c1OC` here?
A: 8.78 µM

Q: Which IC50 does the source give for `CN(C)S(=O)(=O)c1ccc2[nH]cc(/C=C/c3nc4ccccc4c(=O)n3-c3ccccc3)c2c1` here?
A: 4.24 µM

Q: With `NC(=O)c1nsc(C(=O)N(c2ccccc2F)C(C(=O)NCc2ccc(F)cc2)c2ccc(O)cc2)c1N` (stereo not given) as the molecule, how does the IC50 read?
A: 3.13 µM

Q: With `COc1cccc(-c2cnc3c(NC=O)cc(-c4cccc(NC(C)=O)c4)cn23)c1` as the molecule, how does the IC50 read?
A: 6.84 µM

Q: With `COc1ccc(-c2csc(NC(=O)c3ccc(OCC(=O)N4CCOCC4)c(OC)c3)n2)cc1OC` as the molecule, how does the IC50 read?
A: 10.9 µM (inactive)

Q: Which IC50 does the source give for `CN(C)C(=O)/C=C\c1cn(-c2ccccc2)nc1-c1ccc2c(c1)OCCO2` here?
A: 29.4 µM (inactive)

Q: For `COC(=O)c1cccc(S(=O)(=O)N(Cc2ccco2)Cc2cc3cc(OC)ccc3[nH]c2=O)c1`, which IC50 is on record?
A: 11.6 µM (inactive)

Q: With `COc1cc(/C=N/NC(=O)c2ccccc2)ccc1OS(=O)(=O)c1ccccc1` as the molecule, how does the IC50 read?
A: 13.5 µM (inactive)

Q: Which IC50 does the source give for `O=C(N/N=C/c1ccc2c(c1)OCO2)c1ccc(NC(=O)c2ccccc2Cl)cc1` here?
A: 14.8 µM (inactive)

Q: With `O=CNc1cc(-c2ccc(C(=O)NC3CC3)cc2)cn2c(-c3ccccc3)cnc12` as the molecule, how does the IC50 read?
A: 16.1 µM (inactive)

Q: For `Cn1c(-n2c(CCCN3C(=O)c4ccccc4C3=O)nc3ccccc3c2=O)nc2ccccc21`, which IC50 is on record?
A: > 79 µM (inactive)

Q: Which IC50 does the source give for `NC(=O)c1nsc(C(=O)N(c2ccccc2F)C(C(=O)NCc2ccccc2)c2ccc(O)cc2)c1N` (stereo not given) here?
A: 3.04 µM

Q: With `NS(=O)(=O)c1ccc(N=Cc2c(O)n(-c3nccs3)c(=O)c3ccccc23)cc1` as the molecule, how does the IC50 read?
A: 37.2 µM (inactive)

Q: For `O=C(COC(=O)c1c2c(nc3ccccc13)/C(=C/c1cccc([N+](=O)[O-])c1)CCC2)NC1CCS(=O)(=O)C1` (stereo not given), which IC50 is on record?
A: 12.9 µM (inactive)

Q: For `NC(=O)c1ccc(Nc2nnc(-c3ccc(O)cc3)c3ccccc23)cc1`, which IC50 is on record?
A: 34.2 µM (inactive)

Q: Which IC50 does the source give for `Cc1c(C(=O)Nc2ccc3nc(N4CCOCC4)sc3c2)oc2ccccc12` here?
A: 15.8 µM (inactive)

Q: Which IC50 does the source give for `C=CC[C@@H](CC(=O)NCCO)C(=O)NC[C@H](OC(=O)[C@@H](CC=C)Cc1ccc(F)cc1)c1ccccc1` here?
A: 11.9 µM (inactive)

Q: For `CCN(CC)S(=O)(=O)c1ccc(N2CCOCC2)c(NC(=O)c2cc(-c3ccccn3)nc3ccccc23)c1`, which IC50 is on record?
A: 4.51 µM

Q: Which IC50 does the source give for `CCN(CC)c1ccc(C2C(C(=O)OC(C)C)C(=O)CC(C)(O)C2C(=O)OC(C)C)cc1` (stereo not given) here?
A: 20.5 µM (inactive)

Q: Which IC50 does the source give for `COc1ccc(OC)c(/C=N/NC(=O)c2cc3c(OC)c(OC)ccc3[nH]2)c1` here?
A: 8.62 µM

Q: With `N#C/C(=C\c1ccc(-c2cccc([N+](=O)[O-])c2)o1)C(=O)NCCN1CCOCC1` as the molecule, how does the IC50 read?
A: > 79 µM (inactive)

Q: With `Cc1cccc(NC(=O)c2nc[nH]c2C(=O)NCC(=O)OCc2ccccc2)c1` as the molecule, how does the IC50 read?
A: > 79 µM (inactive)

Q: Which IC50 does the source give for `COc1cc(C(=O)N/N=C/c2sc(N3CCOCC3)nc2-c2ccccc2)cc(OC)c1OC` here?
A: 30.9 µM (inactive)

Q: For `Cc1nc(N2CCN(c3ccccn3)CC2)c2c(C)c(C(=O)Nc3ccccc3F)sc2n1`, which IC50 is on record?
A: 16.4 µM (inactive)

Q: With `COc1cc(OC)cc(C(=O)Nc2ccc(C(=O)Nc3ccccc3OC)cc2)c1` as the molecule, how does the IC50 read?
A: 16.6 µM (inactive)

Q: For `CC(C)(C)OC(=O)CNC(=O)c1[nH]cnc1C(=O)NCC(=O)OCc1ccccc1`, which IC50 is on record?
A: 4.16 µM

Q: For `O=C(N/N=C/c1ccc(-c2cccc([N+](=O)[O-])c2)o1)c1ccc([N+](=O)[O-])cc1`, which IC50 is on record?
A: 11.8 µM (inactive)

Q: With `COc1ccc(-n2cc(-c3ccccc3)c3c(N4CCOCC4)ncnc32)cc1` as the molecule, how does the IC50 read?
A: 6.04 µM

Q: With `CC(=O)c1cccc(-c2cnc3c(NC=O)cc(-c4cccc(C(=O)N(C)C)c4)cn23)c1` as the molecule, how does the IC50 read?
A: 39.7 µM (inactive)

Q: For `COCCn1c(=NC(=O)c2nc3ccccc3s2)sc2cc(S(C)(=O)=O)ccc21`, which IC50 is on record?
A: > 79 µM (inactive)

Q: Which IC50 does the source give for `CCc1nc2ccc(C(=O)Nc3cc(-c4ccccc4)ccc3OC)cn2c1N(C)Cc1nccs1` here?
A: 14.1 µM (inactive)

Q: Which IC50 does the source give for `CC(=O)NCCNc1nc2c(-c3ccccc3)nnn2c2ccccc12` here?
A: 13.2 µM (inactive)

Q: For `COCCn1ccc2c(OCC(=O)Nc3ccccc3OC)cccc2c1=O`, which IC50 is on record?
A: 22.1 µM (inactive)

Q: Which IC50 does the source give for `COc1cc(/C=c2\s/c(=C(/C#N)C(=O)N3CCCC3)n(-c3ccccc3)c2=O)ccc1O` here?
A: > 79 µM (inactive)

Q: Which IC50 does the source give for `CCc1nnc(NC(=O)CCC(=O)N2CCN(C3c4ccccc4-c4ccccc43)CC2)s1` here?
A: 29.1 µM (inactive)

Q: With `COc1cc(NC(=O)c2ccco2)c(OC)cc1NC(=O)c1cc(OC)c(OC)c(OC)c1` as the molecule, how does the IC50 read?
A: 7.97 µM

Q: For `Cc1ccccc1C(C(=O)NCc1ccccc1)N(Cc1ccco1)C(=O)c1ccccn1` (stereo not given), which IC50 is on record?
A: 45.6 µM (inactive)

Q: For `Cc1ccc(-c2csc(N3CCC[C@@H]3C(=O)NCCn3c(-c4ccncc4)nc4ccccc43)n2)cc1`, which IC50 is on record?
A: 8.85 µM

Q: Which IC50 does the source give for `COc1ccc(CCNC(=O)c2cc3c(C)nccc3[nH]c2=O)cc1OC` here?
A: 20.7 µM (inactive)

Q: For `CCCNC(=O)c1c(N)n(-c2cccc(OC)c2)c2nc3ccccc3nc12`, which IC50 is on record?
A: 14.9 µM (inactive)

Q: With `CCOc1ccc(-n2cc(-c3ccccc3)c3c(N4CCOCC4)ncnc32)cc1` as the molecule, how does the IC50 read?
A: 10.3 µM (inactive)

Q: With `Cc1nc(SCC(=O)N2CCN(c3ccccc3)CC2)c2oc3ccccc3c2n1` as the molecule, how does the IC50 read?
A: 25.8 µM (inactive)

Q: With `Cc1nn(C)cc1C(C(=O)NC1CCCCC1)N(C(=O)Cc1cccs1)c1ccc(Cl)cc1` (stereo not given) as the molecule, how does the IC50 read?
A: 29.8 µM (inactive)

Q: For `COc1cc(/C=N/n2nnnc2Nc2ccccc2)cc(OC)c1OC`, which IC50 is on record?
A: 38.1 µM (inactive)

From PubChem BioAssay AID602210 (Sanford-Burnham Center for Chemical Genomics, 2012)
